From ChEMBL document CHEMBL6153031, “Impact of the hydrophilic-lipophilic balance of free-base and Zn(II) tricationic pyridiniumporphyrins and irradiation wavelength in PDT against the melanoma cell lines” (Eur J Med Chem, 2025)

Legend:
[1] = Cytotoxicity against human HDF cells assessed as reduction in cell viability incubated for 6 hrs followed by irradiation for 30 mins with light at wavelength of 606 nm and measured after 36 to 48 hrs by MTT assay; type: toxicity, cell-based
[2] = Phototoxicity against human MeWo cells assessed as reduction in cell viability incubated for 6 hrs followed by irradiation for 30 mins with light at wavelength of 606 nm and measured after 36 to 48 hrs by MTT assay; type: functional, cell-based; details: light or radiation study
[3] = Cytotoxicity against human HDF cells assessed as reduction in cell viability incubated for 6 hrs followed by irradiation for 30 mins with light at wavelength of 643 nm and measured after 36 to 48 hrs by MTT assay; type: toxicity, cell-based
[4] = Phototoxicity against human A-375 cells assessed as reduction in cell proliferation at 1 uM incubated for 6 hrs followed by irradiation for 30 mins with light at wavelength of 643 nm and measured after 36 to 48 hrs by MTT assay; type: functional; details: A-375, light or radiation study, time 2550-3270 min
[5] = Cytotoxicity against human HDF cells assessed as reduction in cell viability measured after 36 to 48 hrs by MTT assay; type: toxicity, cell-based
[6] = Phototoxicity against human MeWo cells assessed as reduction in cell viability incubated for 6 hrs followed by irradiation for 30 mins with light at wavelength of 643 nm and measured after 36 to 48 hrs by MTT assay; type: functional, cell-based; details: light or radiation study
[7] = Cytotoxicity against human A-375 cells assessed as reduction in cell viability measured after 36 to 48 hrs by MTT assay; type: toxicity, cell-based
[8] = Cytotoxicity against human HDF cells assessed as reduction in cell proliferation at 1 uM incubated for 6 hrs followed by irradiation for 30 mins with light at wavelength of 643 nm and measured after 36 to 48 hrs by MTT assay; type: toxicity, cell-based; details: time 2550-3270 min
[9] = Phototoxicity against human MeWo cells assessed as reduction in cell proliferation at 1 uM incubated for 6 hrs followed by irradiation for 30 mins with light at wavelength of 643 nm and measured after 36 to 48 hrs by MTT assay; type: functional; details: light or radiation study, time 2550-3270 min
[10] = Cytotoxicity against human MeWo cells assessed as reduction in cell viability measured after 36 to 48 hrs by MTT assay; type: toxicity, cell-based
[11] = Phototoxicity against human A-375 cells assessed as reduction in cell viability incubated for 6 hrs followed by irradiation for 30 mins with light at wavelength of 606 nm and measured after 36 to 48 hrs by MTT assay; type: functional, cell-based; details: A-375, light or radiation study
[12] = Phototoxicity against human A-375 cells assessed as reduction in cell viability incubated for 6 hrs followed by irradiation for 30 mins with light at wavelength of 643 nm and measured after 36 to 48 hrs by MTT assay; type: functional, cell-based; details: A-375, light or radiation study
[13] = Drug uptake in human HDF cells at 1 uM measured at 37 degC after 6 hrs by fluorescence based analysis; type: ADME, cell-based
[14] = Drug uptake in human HDF cells at 1 uM measured at 4 degC after 6 hrs by fluorescence based analysis; type: ADME, cell-based
[15] = Drug uptake in human MeWo cells at 1 uM measured at 4 degC after 6 hrs by fluorescence based analysis; type: ADME, cell-based
[16] = Drug uptake in human MeWo cells at 1 uM measured at 37 degC after 6 hrs by fluorescence based analysis; type: ADME, cell-based
[17] = Drug uptake in nucleus in human MeWo cells at 5 uM incubated for 6 hrs by DIOC6(3) dye based fluorescence microscopy; type: ADME, cell-based
[18] = Drug uptake in cytoplasmic organelles in human MeWo cells at 5 uM incubated for 6 hrs by DIOC6(3) dye based fluorescence microscopy; type: ADME, cell-based
[19] = Drug uptake in human HDF cells at 1 uM measured after 6 hrs by fluorescence based analysis; type: ADME, cell-based
[20] = Drug uptake in nucleus in human HDF cells at 5 uM incubated for 6 hrs by DIOC6(3) dye based fluorescence microscopy; type: ADME, cell-based
[21] = Drug uptake in cytoplasmic organelles in human HDF cells at 5 uM incubated for 6 hrs by DIOC6(3) dye based fluorescence microscopy; type: ADME, cell-based
[22] = Drug uptake in human MeWo cells at 1 uM measured after 6 hrs by fluorescence based analysis; type: ADME, cell-based
[23] = Drug uptake in human HDF cells at 1 uM measured per 10^3 cells after 24 hrs by fluorescence based analysis; type: ADME, cell-based
[24] = Drug uptake in human A-375 cells at 1 uM measured after 6 hrs by fluorescence based analysis; type: ADME, cell-based; details: a-375, 6 h
[25] = Phototoxicity against human A-375 cells assessed as cell proliferation rate at 1 uM incubated for 6 hrs followed by irradiation for 30 mins with light at wavelength of 643 nm and measured after 36 to 48 hrs by MTT assay; type: functional; details: A-375, light or radiation study, time 2550-3270 min, read-out: Activity
[26] = Phototoxicity against human A-375 cells assessed as cell proliferation rate at 1 uM incubated for 6 hrs followed by irradiation for 30 mins with light at wavelength of 606 nm and measured after 36 to 48 hrs by MTT assay; type: functional; details: A-375, light or radiation study, time 2550-3270 min, read-out: Activity
[27] = (§1) Selectivity index, ratio of IC50 for cytotoxicity against human HDF cells incubated for 6 hrs followed by irradiation for 30 mins with light at wavelength of 606 nm and measured after 36 to 48 hrs to IC50 for phototoxicity against human MeWo cells incubated for 6 hrs followed by irradiation for 30 mins with light at wavelength of 606 nm and measured after 36 to 48 hrs; type: toxicity, cell-based; details: HDF cells versus MeWo cells, read-out: Ratio IC50
[28] = Phototoxicity against human MeWo cells assessed as cell proliferation rate at 1 uM incubated for 6 hrs followed by irradiation for 30 mins with light at wavelength of 606 nm and measured after 36 to 48 hrs by MTT assay; type: functional; details: light or radiation study, time 2550-3270 min, read-out: Activity
[29] = Cytotoxicity against human HDF cells assessed as reduction in cell proliferation at 1 uM incubated for 6 hrs followed by irradiation for 30 mins with light at wavelength of 606 nm and measured after 36 to 48 hrs by MTT assay; type: toxicity, cell-based; details: time 2550-3270 min
[30] = as §1, with “A-375” for “MeWo”; type: toxicity, cell-based; details: HDF cells versus A-375 cells, read-out: Ratio IC50
[31] = Cytotoxicity against human HDF cells assessed as cell proliferation rate at 1 uM incubated for 6 hrs followed by irradiation for 30 mins with light at wavelength of 606 nm and measured after 36 to 48 hrs by MTT assay; type: toxicity, cell-based; details: time 2550-3270 min, read-out: Activity
[32] = Phototoxicity against human A-375 cells assessed as reduction in cell proliferation at 1 uM incubated for 6 hrs followed by irradiation for 30 mins with light at wavelength of 606 nm and measured after 36 to 48 hrs by MTT assay; type: functional; details: A-375, light or radiation study, time 2550-3270 min
[33] = Phototoxicity against human MeWo cells assessed as cell proliferation rate at 1 uM incubated for 6 hrs followed by irradiation for 30 mins with light at wavelength of 643 nm and measured after 36 to 48 hrs by MTT assay; type: functional; details: light or radiation study, time 2550-3270 min, read-out: Activity
[34] = Cytotoxicity against human HDF cells assessed as cell proliferation rate at 1 uM incubated for 6 hrs followed by irradiation for 30 mins with light at wavelength of 643 nm and measured after 36 to 48 hrs by MTT assay; type: toxicity, cell-based; details: time 2550-3270 min, read-out: Activity
[35] = Phototoxicity against human MeWo cells assessed as reduction in cell proliferation at 1 uM incubated for 6 hrs followed by irradiation for 30 mins with light at wavelength of 606 nm and measured after 36 to 48 hrs by MTT assay; type: functional; details: light or radiation study, time 2550-3270 min

Drug uptake [13]	Drug uptake [14]	Drug uptake [15]	Drug uptake [16]	Drug uptake [17]	Drug uptake [18]	Drug uptake [20]	Drug uptake [21]	Compound	IC50 [1]	IC50 [2]	IC50 [3]	IC50 [5]	IC50 [6]	IC50 [7]	IC50 [10]	IC50 [11]	IC50 [12]	also measured
								CCCCCCCCCCCC(=O)Nc1ccc(-c2c3nc(c(-c4ccc[n+](C)c4)c4ccc([nH]4)c(-c4ccc[n+](C)c4)c4nc(c(-c5ccc[n+](C)c5)c5ccc2[nH]5)C=C4)C=C3)cc1	6.26 µM	4.27 µM	4.65 µM	> 100 µM	2.36 µM	> 100 µM	> 100 µM	0.33 µM	0.29 µM	inhibition at 1 µM [4]: > 90%; inhibition at 1 µM [8]: < 20%; inhibition at 1 µM [9]: 40%
Active	Active	Active	Active					CCCCCCCC(=O)Nc1ccc(-c2c3nc(c(-c4ccc[n+](C)c4)c4ccc([nH]4)c(-c4ccc[n+](C)c4)c4nc(c(-c5ccc[n+](C)c5)c5ccc2[nH]5)C=C4)C=C3)cc1.[Cl-].[Cl-].[Cl-]	32 µM	18.9 µM	25.7 µM	> 100 µM	8.31 µM	> 100 µM	> 100 µM	3.22 µM	2.5 µM	
Active	Active	Active	Active	Not_active	Active	Not_active	Active	CCCCCCCCCC(=O)Nc1ccc(-c2c3nc(c(-c4ccc[n+](C)c4)c4ccc([nH]4)c(-c4ccc[n+](C)c4)c4nc(c(-c5ccc[n+](C)c5)c5ccc2[nH]5)C=C4)C=C3)cc1.[Cl-].[Cl-].[Cl-]	32.4 µM	9.77 µM	7.09 µM	> 100 µM	7.7 µM	> 100 µM	> 100 µM	3.94 µM	0.91 µM	growth at 1 µM [25]: ~30%; growth at 1 µM [26]: > 80%
Active			Active					CCCCCCCCCCCCCCCC(=O)Nc1ccc(-c2c3nc(c(-c4ccc[n+](C)c4)c4ccc([nH]4)c(-c4ccc[n+](C)c4)c4nc(c(-c5ccc[n+](C)c5)c5ccc2[nH]5)C=C4)C=C3)cc1.[Cl-].[Cl-].[Cl-]	1.48 µM	0.79 µM	0.42 µM	> 100 µM	0.56 µM	> 100 µM	> 100 µM	0.38 µM	0.1 µM	Drug uptake [23]: ~ 26 nM
Active			Active	Not_active	Active	Not_active	Active	CCCCCCCCCCCCCC(=O)Nc1ccc(-c2c3nc(c(-c4ccc[n+](C)c4)c4ccc([nH]4)c(-c4ccc[n+](C)c4)c4nc(c(-c5ccc[n+](C)c5)c5ccc2[nH]5)C=C4)C=C3)cc1.[Cl-].[Cl-].[Cl-]	4.6 µM	1.44 µM	0.78 µM	> 100 µM	0.66 µM	> 100 µM	> 100 µM	0.31 µM	0.09 µM	selectivity ratio [27]: 3.2; growth at 1 µM [28]: 60%; inhibition at 1 µM [29]: 10%; selectivity ratio [30]: 14.8; viability at 1 µM [31]: > 80%; inhibition at 1 µM [32]: 90%; growth at 1 µM [33]: 40%; viability at 1 µM [34]: ~30%; inhibition at 1 µM [35]: 50%
Active	Active	Active	Active					CC(=O)Nc1ccc(-c2c3nc(c(-c4ccc[n+](C)c4)c4ccc([nH]4)c(-c4ccc[n+](C)c4)c4nc(c(-c5ccc[n+](C)c5)c5ccc2[nH]5)C=C4)C=C3)cc1.[Cl-].[Cl-].[Cl-]	> 100 µM	> 100 µM	> 100 µM	> 100 µM	> 100 µM	> 100 µM	> 100 µM	> 100 µM	> 100 µM	

Compound	Drug uptake [13]	Drug uptake [14]	Drug uptake [15]	Drug uptake [16]	Drug uptake [17]	Drug uptake [18]	Drug uptake [20]	Drug uptake [21]	IC50 [1]	IC50 [2]	IC50 [3]	IC50 [5]	IC50 [6]	IC50 [7]	IC50 [10]	IC50 [11]	IC50 [12]	also measured
CCCCCCCCCCCCCCCCCC(=O)Nc1ccc(-c2c3nc(c(-c4ccc[n+](C)c4)c4ccc([nH]4)c(-c4ccc[n+](C)c4)c4nc(c(-c5ccc[n+](C)c5)c5ccc2[nH]5)C=C4)C=C3)cc1.[Cl-].[Cl-].[Cl-]	Active			Active	Not_active	Active	Not_active	Active	0.67 µM	0.48 µM	0.32 µM	> 100 µM	0.35 µM	> 100 µM	> 100 µM	0.37 µM	0.09 µM	Drug uptake [19]: Active; Drug uptake [22]: Active; Drug uptake [23]: ~ 95 nM; Drug uptake [24]: Active
